Measurements: patent US9198855B2, “Veterinary dermatologic composition” (Dermaconcept JMC, priority 2001, dated 2015)
Values after ≈ are worked out from the molar mass of the structure shown.

Key:
Candida albicans = settings: inflammated, depilated guinea pig skin; cited from earlier work
Staphylococcus aureus = settings: inflammated, depilated guinea pig skin; cited from earlier work
[1] = system: Staphylococcus Intermedius; experiment: Multiplication of Staphylococcus Intermedius cultures, doses 0-100 ppm in usual culture environment without solubilising agent; assay type: cell-based; settings: for concentration completely inhibiting multiplication of Staphylococcus Intermedius cultures: complete inhibition; for concentration partly inhibiting multiplication of Staphylococcus Intermedius cultures: partial inhibition
Method: (§1) The minimum inhibitory concentration in case of Malassezia pachyadermatis was 25 ppm. Experiments were carried out using doses of 0, 5, 10, 25, 50 and 100 ppm of phytosphingosin and its hydrochloric acid salt on Staphylococcus Intermedius in usual culture environment without solubilising agent.

[2] = system: Malassezia pachyadermatis; experiment: In-vitro mycological study, minimum inhibitory concentration; assay type: cell-based, Malassezia pachydermatis
Method: as §1
However the effect is not limited to cats and dogs but extends to other furry animals, such as horses, rabbits, […]

Row | MIC ([2]; Malassezia pachyadermatis) [µg/mL] | Structure (SMILES) | activity against Candida albicans (Candida albicans) | activity against Staphylococcus aureus (Staphylococcus aureus) | concentration completely inhibiting multiplication of Staphylococcus Intermedius cultures [1] [ppm] | concentration partly inhibiting multiplication of Staphylococcus Intermedius cultures [1] [ppm] | anti-fungal action against Malassezia pachydermatis ([2]; in-vitro mycological studies)
1 |  | CCCCCCCCCCCCC/C=C/[C@@H](O)[C@@H](N)CO [Sphingosin, sphingosin] | little effect | little effect |  |  | 
2 |  | CCCCCCCCCCCCCC[C@@H](O)[C@@H](O)[C@@H](N)CO.Cl [phytosphingosin hydrochloric acid salt, Phytosphingosin hydrochloric acid] |  |  | 10 | 5 | 
3 | 25 (≈ 78.7 µM) | CCCCCCCCCCCCCC[C@@H](O)[C@@H](O)[C@@H](N)CO [phytosphingosin] |  |  | 10 | 5 | anti-fungal action
4 |  | CCCCCCCCCCCCCCC[C@@H](O)[C@@H](N)CO [sphinganin] | effective | effective |  |  | 
